# Assay results: US4127446A, “Process for producing antibiotics mimosamycin and chlorocarcins A, B and C” (priority 1975, dated 1978)
# Assays:
# [1] = tested on: Mycobacterium smegmatis ATCC607; experiment: Antimicrobial activity of mimosamycin (Table 4); details: Mycolicibacterium smegmatis, ATCC607, 48 h
# [2] = tested on: Mycobacterium bovis No. 10; experiment: microbe, parasite or virus in culture; type: cell-based; details: Mycobacterium tuberculosis variant bovis, NO.10, 672 h
# gram-negative bacteria = experiment: Biological properties of mimosamycin: activity against gram-negative bacteria; type: cell-based; details: at a concentration of 50 μg/ml
# tubercle bacilli = experiment: Activity of mimosamycin against tubercle bacilli (in words); type: cell-based
# Solubility = type: physicochemical
# gram-positive bacteria = experiment: Biological properties of mimosamycin: activity against gram-positive bacteria; type: cell-based
# fungi = experiment: Biological properties of mimosamycin: activity against fungi; type: cell-based; details: at a concentration of 50 μg/ml
# acid-fast bacteria = experiment: Biological properties of mimosamycin: activity against acid-fast bacteria; type: cell-based
# [3] = tested on: highly streptomycin-resistant strains of human tubercle bacilli; type: cell-based; details: compared with normal strains of tubercle bacilli
structure (smiles),measurement,setting,value
COC1=C(C)C(=O)c2cc(=O)n(C)cc2C1=O [Mimosamycin],MIC,[1],25 µg/mL
same,MIC,[2],6.25 µg/mL
same,activity against gram-negative bacteria,gram-negative bacteria,non-effective
same,activity against tubercle bacilli,tubercle bacilli,specifically effective against tubercle bacilli
same,Solubility,"Solubility; in ethyl ether, n-hexane",Sparingly soluble
same,Solubility,"Solubility; in methanol, ethanol, chloroform, esters, acetone",Easily soluble
same,Solubility,Solubility; in water,Insoluble
same,activity against gram-positive bacteria,gram-positive bacteria,active against gram-positive bacteria to a certain extent
same,activity against fungi,fungi,non-effective
same,activity against acid-fast bacteria,acid-fast bacteria,active against acid-fast bacteria
same,activity against highly streptomycin-resistant strains of human tubercle bacilli,[3],effective against highly streptomycin-resistant strains of human tubercle bacilli as is against normal strains of tubercle bacilli
